The values below come from US8975259B2, “Compositions and methods for inhibiting G protein signaling” (University of Rochester, priority 2007, dated 2015).

In this assay the target is Gβ1γ2 (UniProt P54311+P63212). The assay can be described thus: Competition phage ELISA: inhibition of SIGK-phage binding to immobilized biotinylated Gβ1γ2. Set-up: made in house; host or cells: Sf9 insect cells (baculovirus; co-expressed with BirA and (His)6-Gαi1, from which βγ was eluted); species or system rat. The settings on record: for binding to the G protein β subunit: result in words. The procedure:
Phage ELISA assays used to assess peptide binding to wild-type and mutant b-βγ were performed according to standard methods (Smrcka and Scott (2002) Methods Enzymol. 344:557-76). Briefly, 1 μg streptavidin was immobilized in the well of a […] overnight at 4° C. The wells were blocked with 100 μL of 2% bovine serum albumin (BSA) in Tris-buffered saline (TBS) for 1 hour at 4° C. followed by three washes of IX TBS/0.5% TWEEN®. […] The wells were washed, followed by the addition of IxIO^6 to IxIO^10 phage particles and incubated at 4° C. for 3 hours. The wells were then washed six times with TBS/0.5% TWEEN® followed by addition of 40 μL of 1:5000 dilution of anti-M13 antibody (Pharmacia, Uppsala, Sweden) and incubated at room temperature for 1 hour. The wells were washed, followed by the addition of 40 μL of (2,2′-Azino-bis (3-ethylbenzthiazoline)-6-sulfonic acid (ABTS) and the colorimetric reaction was monitored at 405 nm. Nonspecific binding was subtracted for each reading.
A phage ELISA assay was used to determine whether small molecules identified in the computational screen could interact with the Gβy protein interaction surface. […] The screen was based on a reduction in the optical density (OD) of wells containing Gβγ subunits and phage. […] Three background wells contained no βy subunits.
As disclosed herein, biotinylated Gβy subunits were immobilized on the surface of a 96-well plate coated with streptavidin, phage displaying Gβγ-binding peptides were subsequently added and binding in the presence and absence of test compounds detected with an anti-phage antibody.
The phage ELISA assay was used to rapidly screen the ability of compounds to bind to the protein interaction “hot spot” based on the method of Scott et. al (Scott et al., 2001). This assay is performed in the presence of detergent (0.5% Tween) to eliminate non-specific compound aggregation artifacts.
Compounds/DMSO and 0.1×10^10 phage were added simultaneously and subsequently incubated for 1 h at room temperature. Plates were then washed with 1× Tris-buffered saline/0.5% Tween 20 and incubated with anti-M13, HRP-conjugated antibody (Amersham, Chalfont St. Giles, Buckinghamshire, UK). Phage binding was determined by monitoring A405 upon addition of 2,2′-azino-bis(3-ethylbenzothiazoline-6-sulfonic acid) (Sigma Aldrich).
Background: In an ELISA, binding on a coated surface is turned into a signal by an enzyme label.

Where [1] appears, read: Table 18, compounds identified in Elisa screen, read-out: IC50.
Where [2] appears, read: kind of constant not stated, read-out: binding to the G protein β subunit.

Read-outs that look alike come from different tables or passages of the source.

For the molecule `O=C(O)/C=C/c1c2ccc(=O)cc-2oc2cc(O)ccc12` [(E)-3-(6-hydroxy-3-oxo-3H-xanthe-9-yl)acrylic acid], the “binding to the G protein β subunit” value is on record as “Neither of these compounds showed any binding”.
For the molecule `Nc1ccc(-c2ccc(Nc3cc(S(=O)(=O)O)c(N)c4c3C(=O)c3ccccc3C4=O)cc2)c(S(=O)(=O)O)c1` [drawing 54], for the setting “Table 2, read-out: Elisa IC50”, the IC50 is 18 µM.
Consider `O=C1C=CC2C(=C1O)Oc1c(ccc(O)c1O)/C2=C\C=C(O)O` (stereo not shown), for which the IC50 (Table 6) came to 0.2 µM.
In the case of `Nc1ccc(Nc2cc(S(=O)(=O)O)c(N)c3c2C(=O)c2ccccc2C3=O)cc1` [drawing 51], the IC50 (Table 2, read-out: Elisa IC50) is 12 µM.
On the same count and under the same terms, in the case of `Nc1c(S(=O)(=O)O)cc(Nc2cccc(S(N)(=O)=O)c2)c2c1C(=O)c1ccccc1C2=O` [drawing 50] it was 56 µM.
Consider `Nc1ccc(-c2ccc(Nc3cc(S(=O)(=O)O)c(N)c4c3C(=O)c3ccccc3C4=O)cc2)c(S(=O)(=O)O)c1` [Compound M125], for which the IC50 is, setting by setting: (Table 8, read-out: IC50) 68 µM; under setting [1], 18 µM.
On to “7-methyl-3-(4,5,6-trihydroxy-3-oxo-3H-xanthen-9-yl)bicyclo[2.2.1]hept-5-ene-2-carboxylic acid”, for which, under “kind of constant not stated, read-out: binding to the protein interaction site of the β subunit of a G protein”, the IC50 amounted to 0.7 µM.
`O=C(O)c1ccccc1-c1c2ccc(=O)c(O)c-2oc2c(O)c(O)ccc12` gave an IC50 (Table 6) of 0.2 µM.
For `Cc1c2cc(O)c(=O)cc-2oc2cc(O)c(O)cc12` [2,6,7-trihydroxy-9-methyl-3H-xanthen-3-one], the “binding to the G protein β subunit” value was “did not provide a compound that exhibited binding”.
Take `Ic1ccc2c(c1)N(c1ccccc1)c1cc(Nc3ccc4c(c3)N(c3ccccc3)c3cc(I)ccc3N4)ccc1N2`: where the note is “Table 7, read-out: ELISA IC50”, the IC50 amounted to 2 µM.
`CC1C2C=CC1C(c1c3ccc(=O)c(O)c-3oc3c(O)c(O)ccc13)C2C(=O)O` (stereo not shown) returned an IC50 (Table 6) of 0.7 µM.
On to `O=C(O)CCc1c2ccc(=O)cc-2oc2cc(O)ccc12` [3-(6-hydroxy-3-oxo-3H-xanthen-9-yl)propionic acid], for which the “binding to the G protein β subunit” value is “Neither of these compounds showed any binding”.
Consider `Cc1cc(N)c2cc(CC(=O)C(C)(C)C(=O)Nc3ccc4nc(C)cc(N)c4c3)ccc2n1`, for which the IC50 (Table 7, read-out: ELISA IC50) was found to be 74 µM.
For `Nc1cccc(Nc2cc(S(=O)(=O)O)c(N)c3c2C(=O)c2ccccc2C3=O)c1` [drawing 52], the IC50 (Table 2, read-out: Elisa IC50) amounted to 19 µM.
For the molecule `O=C(O)C1C2C=CC(C2)C1c1c2ccc(=O)cc-2oc2cc(O)ccc12` (stereo not shown) [3-(6-hydroxy-3-oxo-3H-xanthen-9yl)bicyclo[2.2.1]hept-5-ene-2-carboxylic acid], under setting [2], the IC50 came out at 14 µM.
`O=C(O)C1CCCCC1c1c2ccc(=O)c(O)c-2oc2c(O)c(O)ccc12` (stereo not shown) [drawing 103] displayed an IC50 (SIGK IC50, Table 6) of 0.2 µM.
`O=C(O)c1cccc2cccc(-c3c4ccc(=O)c(O)c-4oc4c(O)c(O)ccc34)c12` [drawing 108]: the IC50 (Table 6) worked out at 0.15 µM.
Turning to `Cc1c2ccc(=O)cc-2oc2cc(O)ccc12` [6-hydroxy-9-methyl-3H-xanthen-3-one], the “binding to the G protein β subunit” value is reported as “not to bind”.
`O=C(O)/C=C/c1c2ccc(=O)c(O)c-2oc2c(O)c(O)ccc12` [(E)-3-(4,5,6-trihydroxy-3-oxo-3H-xanthen-9-yl)acrylic acid]: under setting [2], the IC50 amounted to 0.2 µM.
For `O=C(O)C1CC23C(Cl)C(Cl)C(Cl)C(Cl)C2(CC1c1c2ccc(=O)c(O)c-2oc2c(O)c(O)ccc12)C3(Cl)Cl` (stereo not shown), under “Table 6”, the IC50 was found to be 0.2 µM.
As to `Nc1c(S(=O)(=O)O)cc(Nc2cccc(S(N)(=O)=O)c2)c2c1C(=O)c1ccccc1C2=O` [Compound M117], the IC50 by setting is: (Table 8, read-out: IC50) 43 µM; under setting [1], 56 µM.
Consider `CNc1ccc(Nc2cc(S(=O)(=O)O)c(N)c3c2C(=O)c2ccccc2C3=O)cc1`, for which the IC50 (Table 2, read-out: Elisa IC50) turned out to be 59 µM.
With `O=C(O)CCc1c2ccc(=O)c(O)c-2oc2c(O)c(O)ccc12` [3-(4,5,6-trihydroxy-3-oxo-3H-xanthen-9-ylpropanoic acid], the IC50 under setting [2] worked out at 2.5 µM.
